Consider 22 molecules from patent US8440810B2, “Riboswitches, methods for their use, and compositions for use with riboswitches” (Yale University, priority 2002, dated 2013).

Assay [1] concerns lysC 5′-UTR fused to lacZ reporter gene. The format is cell-based, B. subtilis. As to conditions: wild-type construct, minimal medium plus 1 mM compound.
The target of assay [2] is 179 lysC RNA. Kind of assay: In-line probing of 179 lysC RNA. As to conditions: read-out: apparent KD; lysine analogs, data not shown, RNA construct not stated.
For the next assay, the system named is lysC 5′-UTR template. Kind of assay: In vitro transcription termination assay, lysC 5′-UTR. The following applies: 10 mM compound.
Another assay has as its system 124 yitJ RNA. The experiment in a line: In-line probing of 124 yitJ RNA. Type of assay: binding, B. subtilis.
The subject of the next assay is metI leader construct. Type of assay: biochemical, B. subtilis. The following applies: 50 μM; in all instances (yitJ, yoaD, metK, metI leaders).
Another assay deals with 165 thiM RNA. The format is binding, E. coli. As to conditions: for structure modulation: 40 μM each compound; for Kd: thiM RNA as reported in Example 3 (FIG. 13), read-out: apparent KD. From the text:
Specifically, TPP-dependent modulation of the spontaneous cleavage of RNA constructs was visualized by polyacrylamide gel electrophoresis (PAGE). […] Some RNAs were subjected to no reaction, partial digestion with alkali, or partial digestion with RNase T1 (G-specific cleavage) (see FIG. 6a). Composite plots of the fraction of RNA cleaved at specific sites versus the logarithm of the concentration of ligand (e.g. FIG. 7a) were generated to provide an estimate of the apparent KD. Fraction cleaved values were normalized relative to the highest and lowest cleavage values measured for each site.
NR, ^−OH and T1 represent RNAs subjected to no reaction, partial digestion with alkali, or partial digestion with RNase Tl (G-specific cleavage), respectively. Product bands representing cleavage after selected G residues are numbered and identified by filled arrowheads. The asterisk identifies modulation of RNA structure involving the Shine-Dalgarno (SD) sequence. Gel separations were analyzed using a phosphorimager (Molecular Dynamics) and quantitated using ImageQuant software.

Another assay deals with 80 ydhL RNA. Kind of assay: In-line probing of 80 ydhL RNA. Type of assay: binding, B. subtilis.
The subject of assay [3] is 179 lysC RNA. The format is binding, B. subtilis. The following applies: 50 μM unlabeled compound, additional 10 hr.
Assay [4] concerns btuB leader-lacZ fusion. The experiment in a line: btuB-lacZ expression assay. The format is cell-based, E. coli. As to conditions: wild-type btuB leader.
In assay [5] the test system is 202-nucleotide leader sequence of the btuB mRNA. The format is binding, Escherichia coli. The following applies: AdoCbl analogs of FIG. 4. The procedure: Precursor mRNA leader molecules were prepared by in vitro transcription from templates generated by PCR (see In vivo Expression Constructs and Assays section below) and 5′ ^32p-labeled using methods described previously (Soukup and Breaker, Allosteric nucleic acid catalysts. Curr. Opin. Struct. Biol. 10, […] (2000)). Approximately 20 nM of labeled RNA precursor was incubated as described in the brief description of FIG. 1. Accompanying digestions were carried out using reaction conditions similar to those described previously (Soukup and Breaker, Relationship between internucleotide linkage geometry and the stability of […]. RNA 5, 1308-1325 (1999)). […]
Metabolite-dependent conformational changes in the 202-nucleotide leader sequence of the btuB mRNA. […] The image was generated using a phosphorimager (Molecular Dynamics), and cleavage yields were quantitated by using ImageQuant software. […]
The btuB mRNA leader forms a saturable binding site for AdoCbl. […] 5′-^32P-labeled mRNA leader molecules were incubated, separated, and analyzed as described in the in the legend to FIG. 1A, and include identical control and marker lanes as indicated. […] Fraction cleaved values were normalized relative to the highest and lowest cleavage values measured for each location, including the values obtained upon incubation in the absence of AdoCbl. […]

Assay [6] concerns 93 xpt RNA. The experiment in a line: In-line probing of 93 xpt RNA. Type of assay: binding, B. subtilis. As to conditions: for modulation of spontaneous cleavage pattern: 1 μM (adenine as much as 1 mM), 93 xpt and 201 xpt.
In the next assay the test system is ribD RNA. Kind of assay: In-line probing of ribD RNA (RFN element). The format is binding, B. subtilis.
A further assay concerns 91 thiM RNA. Kind of assay: Equilibrium dialysis with thiM RNA using 3H-thiamine. The format is binding, E. coli. The following applies: 100 μM competitor (Example 2).
The subject of assay [7] is 93 xpt RNA. Kind of assay: Equilibrium dialysis with 93 xpt RNA. Type of assay: binding, B. subtilis. The following applies: 500 nM analog.
Assay [8] deals with xpt-pbuX 5′-UTR fused to β-galactosidase reporter gene. Kind of assay: xpt-lacZ β-galactosidase reporter expression. The following applies: wild-type xpt construct, six-hour incubation. The format is cell-based, B. subtilis.
For assay [9], the system named is 93 xpt RNA (C to U mutation at position 74). The format is binding, B. subtilis.
The test system of assay [10] is xpt riboswitch variant with the C to U mutation at position 74, reporter construct. The format is cell-based, B. subtilis.
Assay [11] relates to wild-type ydhL riboswitch fused to β-galactosidase reporter gene. Kind of assay: ydhL-lacZ β-galactosidase reporter expression. Type of assay: cell-based, B. subtilis.
Assay [12] relates to btuB leader-lacZ fusion. As to conditions: from Nou and Kadner; Lundrigan and Kadner; cited from earlier work.
Assay [13] has as its system 202-nucleotide mRNA leader (btuB). The experiment in a line: Equilibrium dialysis with btuB mRNA leader. As to conditions: 5,000 pmoles unlabeled compound added to chamber b.
Setting [14] is: translational fusion, 100 μM thiamine, minimal medium.

“Also recorded” adds a separate entry of the source. Where two headings read alike, the source gives them in different places.

Method for ribD RNA: To assess whether the RFN element of ribD was responsive to FMN, a fragment of the corresponding 5′-UTR was 5′-^32P labeled and incubated in the absence and presence of FMN, and the resulting fragments were analyzed by polyacrylamide gel electrophoresis (PAGE). […] To obtain values for apparent dissociation constant (apparent KD) for FMN, in-line probing assays were repeated with trace amounts of ribD RNA and increasing concentrations of FMN; the ligand concentration that correlates with half-maximal modulation of RNA structure should reflect the apparent KD.

Regarding `NCCSC[C@H](N)C(=O)O` [thiosine, S-(2-aminoethyl)-L-cysteine], in assay [1], the “repression of β-galactosidase reporter expression” value is reported as “represses β-galactosidase expression”. The Kd at 179 lysC RNA [2] was approximately 30 µM. Besides, the “induction of transcription termination” value in the assay on lysC 5′-UTR template is given as “cause an increase in transcription termination”.
For the molecule `Nc1ncnc2c1ncn2[C@@H]1O[C@H](CSC[C@H](N)C(=O)O)[C@@H](O)[C@H]1O` [SAC], the “discrimination relative to SAM” value in the assay with 124 yitJ RNA is given as ~10,000 fold. Further, the “modulation of transcription termination” value with metI leader construct is on record as “little or no modulation of transcription termination”.
As for `Cc1ncc(C[n+]2csc(CCOP(=O)(O)O)c2C)c(N)n1` [TP, thiamine monophosphate], in the assay on 165 thiM RNA, the structure modulation result is given as “induce modulation” and the Kd amounted to 3 µM.
Take `CNc1ncnc2nc[nH]c12` [MA, 6-methylaminopurine]: in the assay with 80 ydhL RNA, the “binding / structural modulation” value is given as “measurable binding”.
The same measure, in the same setting: in the case of `Nc1ncnc2nc(Cl)[nH]c12` [8-chloroadenine] it was “prevents ligand binding”.
As to `NCCC[C@H](N)C(=O)O` [L-ornithine], the “restoration of equal tritium distribution by unlabeled competitor” value in the assay with 179 lysC RNA [3] is “do not restore equal distribution of tritium”. For the same molecule, in the assay on lysC 5′-UTR template, the “induction of transcription termination” value is on record as “Neither D-lysine nor L-ornithine induce termination”.
For `NCCCC[C@@H](N)C(=O)O` [D-lysine], in that order: “do not restore equal distribution of tritium” and “Neither D-lysine nor L-ornithine induce termination”.
For the molecule `Nc1ncc2[nH]cnc2n1` [2-aminopurine], the “binding / structural modulation” value with 80 ydhL RNA is “measurable binding”.
Take 13-epi-AdoCbl [compound 11]: in the assay on btuB leader-lacZ fusion [4], the “regulatory effector function on reporter gene inside cells” value was “inactive”. Further, in assay [5], the “structural modulation (spontaneous cleavage at site 2, U68)” value is “inactive”.
Regarding `O=c1[nH]c(=O)c2[nH]cnc2[nH]1` [xanthine], the “modulation of spontaneous cleavage pattern” value in the assay on 93 xpt RNA [6] is “induce modulation of spontaneous cleavage”.
For the molecule `Cc1cc2nc3c(=O)[nH]c(=O)nc-3n(C[C@H](O)[C@H](O)[C@H](O)CO)c2cc1C` [riboflavin], the figures for the “discrimination relative to FMN” value in the assay on ribD RNA and in the assay on ribD RNA (worded for FMN riboswitches) were “approximately three orders of magnitude” and ~1,000 fold, respectively.
In the case of `COc1nc(N)nc2nc[nH]c12` [O^6-methylguanine], the “loss in apparent KD relative to guanine” value with 93 xpt RNA [6] is given as more than 100 fold.
Regarding `Cc1ncc(C[n+]2csc(CCO)c2C)c(=O)[nH]1` [oxythiamine], in the assay on 91 thiM RNA, the “reversal of 3H-thiamine shift by excess unlabeled compound” value is listed as “does not significantly restore the tritium distribution to unity; also recorded: could not be reversed”. For the same molecule, the structure modulation result in the assay on 165 thiM RNA is reported as “fail to induce structure modulation”.
Regarding `Nc1nc2c(ncn2[C@@H]2O[C@H](CO)[C@@H](O)[C@H]2O)c(=O)[nH]1` [guanosine], in the assay with 93 xpt RNA [7], the “redistribution of 3H-guanine by excess unlabeled competitor” value is given as “fails to restore equal distribution”.
For the molecule `Nc1nc(N)c2[nH]cnc2n1` [2,6-DAP, 2,6-diaminopurine], the “binding / structural modulation” value with 80 ydhL RNA was “measurable binding; also recorded: tightest-binding ligand”.
Regarding `Nc1nc(Br)c2[nH]cnc2n1` [2-amino-6-bromopurine], the “loss in apparent KD relative to guanine” value in the assay with 93 xpt RNA [6] is ~1,000 fold.
Turning to `Nc1ncnc2nc[nH]c12` [adenine], the “repression of reporter expression” value in assay [8] is on record as approximately 4 fold. Further, the “structural modulation and binding in equilibrium dialysis” value in assay [9] was “exhibits structural modulation and binding activity”. Also, the Kd in [9] (read-out: apparent KD) is approximately 0.1 µM; at 80 ydhL RNA (half-maximal change at sites 1 through 4, read-out: apparent KD) it was approximately 0.3 µM; on 93 xpt RNA [6] (read-out: KD), more than 300 µM. Further, the “regulation of reporter expression” value in assay [10] was “no change in the putative protein-dependent control”. Also, the “binding / structural modulation” value in the assay with 80 ydhL RNA is recorded as “specific for adenine”; in the assay on 80 ydhL RNA (listed as A), “measurable binding”. Further, in the assay on 93 xpt RNA [6], the “modulation of spontaneous cleavage pattern” value is “does not alter the pattern of RNA cleavage products”. Also, the “apparent KD poorer than for guanine” value in the assay on 93 xpt RNA [6] (guanine riboswitch from B. subtilis xpt) is recorded as “at least 100,000 fold”. Further, the “increase in gene expression” value in assay [11] is “greater than 10 fold”.
As for `Cc1ncc(C[n+]2csc(CCO)c2C)c(N)n1` [thiamine], the “suppression of β-galactosidase activity” value in the assay with thiM-lacZ fusion (transcriptional fusion) is “not subject to suppression”. Also, the “thiamine-dependent suppression of β-galactosidase activity” value with thiM-lacZ fusion (setting [14]) is recorded as 18 fold. Further, the “reversal of 3H-thiamine shift by excess unlabeled compound” value in the assay with 91 thiM RNA is given as “could be eliminated”. Also, in the assay on 165 thiM RNA, the structure modulation result is on record as “induce modulation” and the Kd turned out to be 40 µM. The “modulation of β-galactosidase activity” value in the assay with thiC-lacZ fusion (transcriptional fusion) was determined as 16 fold. In addition, in the assay on thiC-lacZ fusion (setting [14]), the “thiamine-dependent suppression of β-galactosidase activity” value stood at 110 fold.
With `Nc1ncnc2c1ncn2[C@@H]1O[C@H](CSCC[C@H](N)C(=O)O)[C@@H](O)[C@H]1O` [SAH, S-adenosylhomocysteine], the “discrimination relative to SAM” value with 124 yitJ RNA is approximately 100 fold. In addition, the “modulation of transcription termination” value with metI leader construct is “little or no modulation of transcription termination”.
As to cyanocobalamin, the “regulatory effector for btuB expression” value with btuB leader-lacZ fusion [12] is on record as “incapable of serving as a regulatory effector”. In addition, the “restoration of equal tritium distribution by excess unlabeled compound” value in assay [13] is listed as “does not restore the ratio of tritium to unity”.
As for `c1ncc2[nH]cnc2n1` [P, purine], in the assay on 80 ydhL RNA, the “binding / structural modulation” value is recorded as “measurable binding”.
Take `O=c1[nH]cnc2nc[nH]c12` [hypoxanthine]: the “modulation of spontaneous cleavage pattern” value in the assay on 93 xpt RNA [6] was “induce modulation of spontaneous cleavage”.
